According to patent publication US20160002247A1, “8-SUBSTITUTED IMIDAZOPYRIMIDINONE DERIVATIVE HAVING AUTOTAXIN INHIBITORY ACTIVITY” (THE UNIVERSITY OF TOKYO, priority 2013, published 2016):

Each molecule was assayed against T1, Human autotaxin enzyme (Homo sapiens, UniProt Q13822) (assay: Evaluation of autotaxin inhibitor, Method C (Test Example 3): 18:0 Lyso PC, choline assay, Resorufin fluorescence). Conditions: Assay Method C (Test Example 3), human autotaxin, 18:0 Lyso PC substrate; read-out: Inhibitory Activity (autotaxin enzyme inhibitory activity, IC50 class).
T1 construct: purchased R&D System
Assay type: biochemical
Procedure: (Method C) Evaluation of Autotaxin Inhibitor
Solution B containing 100 mM Tris-HCl buffer (pH7.5), 150 mM NaCl, 5 mM MgCl2 and 0.05% Triton X-100 was prepared. Human autotaxin enzyme (purchased from R&D System) was diluted with Solution B, and 2.5 μL of which was added to a solution of test compound in DMSO. Furthermore, 2.5 μl of 200 μM 18:0 Lyso PC (purchased from Avanti Polar Lipids) in Solution B was added and allowed to react at room temperature for 2 hours. After completion of the reaction, 15 μL of the coline assay reagent (100 mM Tris-HCl buffer (pH7.5), 5 mM MgCl2, 77 μg/mL choline oxidase, 10 μg/mL peroxidase, 25 μM 10-acetyl-3,7-dihydroxyphenoxazine and excess autotaxin inhibitor) was added and allowed to react at room temperature for 20 minutes. The fluorescent dye Resorufin, which was produced by the reaction, was detected. The fluorescence was detected using ViewLux (PerkinElmer, Inc.) with an excitation wavelength of 531 nm and a fluorescence wavelength of 598 nm.
The percent inhibition of the test compound was calculated by assuming the sample with no test compound as 0% inhibition and the sample with no enzyme as 100% inhibition, and the percent inhibitions at different concentrations of the test compound were plotted to obtain a concentration-dependent curve.
`CCCCCn1c(-c2cccc(C(=O)NCc3ccccc3)c2)cc(=O)n2cc(-c3ccc(Cl)cc3)nc12` [Compound 428] was tested, and the IC50 was 100 to 1000 nM.
`CCCCCn1c(-c2ccc(S(=O)(=O)O)cc2)cc(=O)n2cc(-c3ccc(Cl)cc3)nc12` [Compound 429] showed an IC50 of 10 to 100 nM.
For `CCCCCn1c(-c2ccc(S(=O)(=O)N3CCOCC3)cc2)cc(=O)n2cc(-c3ccc(Cl)cc3)nc12` [Compound 430], the IC50 was 10 to 100 nM.
For `CCCCCn1c(-c2ccc(S(=O)(=O)NC)cc2)cc(=O)n2cc(-c3ccc(Cl)cc3)nc12` [Compound 431], the IC50 was 10 to 100 nM.
With `CCCCCn1c(-c2ccc(SC)cc2)cc(=O)n2cc(-c3ccc(Cl)cc3)nc12` [Compound 432] the IC50 was 100 to 1000 nM.
`CCCCCn1c(-c2ccc(S(C)(=O)=O)cc2)cc(=O)n2cc(-c3ccc(Cl)cc3)nc12` [Compound 433] gave an IC50 of 10 to 100 nM.
With `CCCCCn1c(-c2ccc(NC(C)=O)cc2)cc(=O)n2cc(-c3ccc(Cl)cc3)nc12` [Compound 434] the IC50 was 100 to 1000 nM.
In the case of `CCCCCn1c(-c2ccc(CC)cc2)cc(=O)n2cc(-c3ccc(Cl)cc3)nc12` [Compound 435], the IC50 is reported as 100 to 1000 nM.
`CCCCCn1c(-c2cccc(C(=O)NCCOC)c2)cc(=O)n2cc(-c3ccc(Cl)cc3)nc12` [Compound 436] was tested, and the IC50 was 10 to 100 nM.
`CCCCCn1c(-c2ccc(NC(=O)N3CCOCC3)cc2)cc(=O)n2cc(-c3ccc(Cl)cc3)nc12` [Compound 437] was tested, and the IC50 was 10 to 100 nM.
Molecule `CCCCCn1c(-c2ccc(NS(=O)(=O)N(C)C)cc2)cc(=O)n2cc(-c3ccc(Cl)cc3)nc12` [Compound 438] has an IC50 of 10 to 100 nM.
For `CCCCCn1c(-c2cccc(C(=O)NCCN(C)C)c2)cc(=O)n2cc(-c3ccc(Cl)cc3)nc12` [Compound 439], the IC50 was 10 to 100 nM.
`CCCCCn1c(-c2ccccc2NS(C)(=O)=O)cc(=O)n2cc(-c3ccc(Cl)cc3)nc12` [Compound 440] gave an IC50 of 100 to 1000 nM.
For `CCCCCn1c(-c2cccc(NS(C)(=O)=O)c2)cc(=O)n2cc(-c3ccc(Cl)cc3)nc12` [Compound 441], the IC50 was 100 to 1000 nM.
For `CCCCCn1c(-c2ccc(CCCC)cc2)cc(=O)n2cc(-c3ccc(Cl)cc3)nc12` [Compound 442], the IC50 was greater than 1000 nM.
`CCCCCn1c(-c2ccccc2F)cc(=O)n2cc(-c3ccc(Cl)cc3)nc12` [Compound 443] gave an IC50 of 100 to 1000 nM.
With `CCCCCn1c(-c2cccc(F)c2)cc(=O)n2cc(-c3ccc(Cl)cc3)nc12` [Compound 444] the IC50 was 100 to 1000 nM.
`CCCCCn1c(-c2cccc(N3CCOCC3)c2)cc(=O)n2cc(-c3ccc(Cl)cc3)nc12` [Compound 445] gave an IC50 of 100 to 1000 nM.
`CCCCCn1c(-c2ccc(CCCO)cc2)cc(=O)n2cc(-c3ccc(Cl)cc3)nc12` [Compound 446] showed an IC50 of 100 to 1000 nM.
With `CCCCCn1c(-c2cccc(C(C)=O)c2)cc(=O)n2cc(-c3ccc(Cl)cc3)nc12` [Compound 447] the IC50 was 10 to 100 nM.
`CCCCCn1c(-c2ccc3[nH]c(=O)[nH]c3c2)cc(=O)n2cc(-c3ccc(Cl)cc3)nc12` [Compound 448] gave an IC50 of 10 to 100 nM.
`CCCCCn1c(-c2ccc(N3C[C@@H](CNC(C)=O)OC3=O)cc2F)cc(=O)n2cc(-c3ccc(Cl)cc3)nc12` [Compound 449] gave an IC50 of 10 to 100 nM.
Work on `CCCCCn1c(-c2ccc3ncsc3c2)cc(=O)n2cc(-c3ccc(Cl)cc3)nc12` [Compound 450] yielded an IC50 of 10 to 100 nM.
Molecule `CCCCCn1c(-c2ccc(OCCO)c(S(N)(=O)=O)c2)cc(=O)n2cc(-c3ccc(Cl)cc3)nc12` [Compound 451] has an IC50 of 10 to 100 nM.
Work on `CCCCCn1c(-c2cccc(S(=O)(=O)N3CCOCC3)c2)cc(=O)n2cc(-c3ccc(Cl)cc3)nc12` [Compound 452] yielded an IC50 of 10 to 100 nM.
Work on `CCCCCn1c(-c2ccc(C(=O)OCC)cc2)cc(=O)n2cc(-c3ccc(Cl)cc3)nc12` [Compound 453] yielded an IC50 of 100 to 1000 nM.
Work on `CCCCCn1c(-c2cnc(OC)nc2OC)cc(=O)n2cc(-c3ccc(Cl)cc3)nc12` [Compound 454] yielded an IC50 of 10 to 100 nM.
Work on `CCCCCn1c(-c2cnccc2OC)cc(=O)n2cc(-c3ccc(Cl)cc3)nc12` [Compound 455] yielded an IC50 of 100 to 1000 nM.
With `CCCCCn1c(-c2ccc(OC)nc2)cc(=O)n2cc(-c3ccc(Cl)cc3)nc12` [Compound 456] the IC50 was 10 to 100 nM.
Molecule `CCCCCn1c(-c2ccc(F)nc2)cc(=O)n2cc(-c3ccc(Cl)cc3)nc12` [Compound 457] has an IC50 of 10 to 100 nM.
`CCCCCn1c(-c2cnc(OC)c(Cl)c2)cc(=O)n2cc(-c3ccc(Cl)cc3)nc12` [Compound 458] showed an IC50 of 100 to 1000 nM.
In the case of `CCCCCn1c(-c2cnc(N)nc2)cc(=O)n2cc(-c3ccc(Cl)cc3)nc12` [Compound 459], the IC50 is reported as 10 to 100 nM.
`CCCCCn1c(-c2ccnc(OC)c2)cc(=O)n2cc(-c3ccc(Cl)cc3)nc12` [Compound 460] showed an IC50 of 100 to 1000 nM.
`CCCCCn1c(-c2cncc(OC)c2)cc(=O)n2cc(-c3ccc(Cl)cc3)nc12` [Compound 461] showed an IC50 of 10 to 100 nM.
Molecule `CCCCCn1c(-c2ccc(C#N)nc2)cc(=O)n2cc(-c3ccc(Cl)cc3)nc12` [Compound 462] has an IC50 of 10 to 100 nM.
`CCCCCn1c(-c2cnc(O)nc2)cc(=O)n2cc(-c3ccc(Cl)cc3)nc12` [Compound 463] gave an IC50 of 10 to 100 nM.
In the case of `CCCCCn1c(-c2ccc(C(=O)NCCC#N)cc2)cc(=O)n2cc(-c3ccc(Cl)cc3)nc12` [Compound 465], the IC50 is reported as 10 to 100 nM.
With `CCCCCn1c(-c2ccc(C(=O)Nc3ccncc3)cc2)cc(=O)n2cc(-c3ccc(Cl)cc3)nc12` [Compound 466] the IC50 was 10 to 100 nM.
For `CCCCCn1c(-c2ccc(C(=O)N(CCO)CCO)cc2)cc(=O)n2cc(-c3ccc(Cl)cc3)nc12` [Compound 467], the IC50 was 10 to 100 nM.
Work on `CCCCCn1c(-c2ccc(C(=O)NC(C)(C)C)cc2)cc(=O)n2cc(-c3ccc(Cl)cc3)nc12` [Compound 468] yielded an IC50 of 100 to 1000 nM.
In the case of `CCCCCn1c(-c2ccc(C(=O)Nc3ccccc3)cc2)cc(=O)n2cc(-c3ccc(Cl)cc3)nc12` [Compound 469], the IC50 is reported as 10 to 100 nM.
`CCCCCn1c(-c2ccc(C(=O)NCCNC(C)=O)cc2)cc(=O)n2cc(-c3ccc(Cl)cc3)nc12` [Compound 470] was tested, and the IC50 was 10 to 100 nM.
`CCCCCn1c(-c2ccc(C(=O)Nc3ccc(OC)cc3)cc2)cc(=O)n2cc(-c3ccc(Cl)cc3)nc12` [Compound 471] showed an IC50 of 100 to 1000 nM.
`CCCCCn1c(-c2ccc(C(=O)N3CCC(O)CC3)cc2)cc(=O)n2cc(-c3ccc(Cl)cc3)nc12` [Compound 472] showed an IC50 of 10 to 100 nM.
Molecule `CCCCCn1c(-c2ccc(C(=O)N3CCOCC3)cc2)cc(=O)n2cc(-c3ccc(Cl)cc3)nc12` [Compound 473] has an IC50 of 10 to 100 nM.
In the case of `CCCCCn1c(-c2ccc(C(=O)N3CCN(C(C)=O)CC3)cc2)cc(=O)n2cc(-c3ccc(Cl)cc3)nc12` [Compound 474], the IC50 is reported as 10 to 100 nM.
`CCCCCn1c(-c2ccc(C(=O)NCCF)cc2)cc(=O)n2cc(-c3ccc(Cl)cc3)nc12` [Compound 475] showed an IC50 of 10 to 100 nM.
In the case of `CCCCCn1c(-c2ccc(C(=O)N(C)CCO)cc2)cc(=O)n2cc(-c3ccc(Cl)cc3)nc12` [Compound 476], the IC50 is reported as 10 to 100 nM.
With `CCCCCn1c(-c2ccc(C(=O)NC(C)(C)CO)cc2)cc(=O)n2cc(-c3ccc(Cl)cc3)nc12` [Compound 477] the IC50 was 10 to 100 nM.
For `CCCCCn1c(-c2ccc(C(=O)NCCC)cc2)cc(=O)n2cc(-c3ccc(Cl)cc3)nc12` [Compound 478], the IC50 was 10 to 100 nM.
With `CCCCCn1c(-c2ccc(C(=O)NCCCOC)cc2)cc(=O)n2cc(-c3ccc(Cl)cc3)nc12` [Compound 479] the IC50 was 10 to 100 nM.
Molecule `CCCCCn1c(-c2ccc(C(=O)NCCOCCO)cc2)cc(=O)n2cc(-c3ccc(Cl)cc3)nc12` [Compound 480] has an IC50 of 10 to 100 nM.
In the case of `CCCCCn1c(-c2ccc(C(=O)NCCCO)cc2)cc(=O)n2cc(-c3ccc(Cl)cc3)nc12` [Compound 481], the IC50 is reported as 10 to 100 nM.
`CCCCCn1c(-c2ccc(C(=O)NC(CO)CO)cc2)cc(=O)n2cc(-c3ccc(Cl)cc3)nc12` [Compound 482] gave an IC50 of less than 10 nM.
Work on `CCCCCn1c(-c2ccc(C(=O)NCC3CC3)cc2)cc(=O)n2cc(-c3ccc(Cl)cc3)nc12` [Compound 483] yielded an IC50 of 10 to 100 nM.
`C#CCNC(=O)c1ccc(-c2cc(=O)n3cc(-c4ccc(Cl)cc4)nc3n2CCCCC)cc1` [Compound 484] showed an IC50 of 10 to 100 nM.
`CCCCCn1c(-c2ccc(C(=O)N3CCN(CCOC)CC3)cc2)cc(=O)n2cc(-c3ccc(Cl)cc3)nc12` [Compound 485] showed an IC50 of 10 to 100 nM.
In the case of `CCCCCn1c(-c2ccc(C(=O)NC[C@H](O)CO)cc2)cc(=O)n2cc(-c3ccc(Cl)cc3)nc12` [Compound 486], the IC50 is reported as less than 10 nM.
With `CCCCCn1c(-c2ccc(C(=O)NCC(O)CO)cc2)cc(=O)n2cc(-c3ccc(Cl)cc3)nc12` (stereo not shown) [Compound 487] the IC50 was less than 10 nM.
With `CCCCCn1c(-c2ccc(C(=O)Nc3ncco3)cc2)cc(=O)n2cc(-c3ccc(Cl)cc3)nc12` [Compound 488] the IC50 was 10 to 100 nM.
`CCCCCn1c(-c2ccc(C(=O)NC3CN(C)C3)cc2)cc(=O)n2cc(-c3ccc(Cl)cc3)nc12` [Compound 489] gave an IC50 of 10 to 100 nM.
`CCCCCn1c(-c2ccc(C(=O)NC3COC3)cc2)cc(=O)n2cc(-c3ccc(Cl)cc3)nc12` [Compound 490] was tested, and the IC50 was less than 10 nM.
`CCCCCn1c(-c2ccc(C(=O)N3CCC4(CN(C(=O)OC(C)(C)C)C4)C3)cc2)cc(=O)n2cc(-c3ccc(Cl)cc3)nc12` [Compound 491] gave an IC50 of 100 to 1000 nM.
With `CCCCCn1c(-c2ccc(C(=O)N3CCS(=O)(=O)CC3)cc2)cc(=O)n2cc(-c3ccc(Cl)cc3)nc12` [Compound 492] the IC50 was 10 to 100 nM.
Molecule `CCCCCn1c(-c2ccc(C(=O)NC3CCS(=O)(=O)CC3)cc2)cc(=O)n2cc(-c3ccc(Cl)cc3)nc12` [Compound 493] has an IC50 of 10 to 100 nM.
Molecule `CCCCCn1c(-c2ccc(C(=O)NCCS(C)(=O)=O)cc2)cc(=O)n2cc(-c3ccc(Cl)cc3)nc12` [Compound 494] has an IC50 of 10 to 100 nM.
In the case of `CCCCCn1c(-c2ccc(C(=O)NC)cc2)cc(=O)n2cc(-c3ccc(Cl)cc3)nc12` [Compound 495], the IC50 is reported as 10 to 100 nM.
